US20090280193A1, “Enerceutical mediated activation of the Alternative Cellular Energy (ACE) pathway in the therapy of diseases” (priority 2008, published 2009)

Assay: UV light induced fluorescence when mixed with freshly prepared neutral red
Format: physicochemical
Description: This concept is fully consistent with the finding that various mineral and organic substances can be formulated that similarly show fluorescence when mixed with neutral red and illuminated with UV light. Not all cellular energy delivering products show this reaction but may yet presumably still be are able to absorb energies; and further that such absorption may be facilitated using various types of dyes or other chemicals. The advantage of a current formulation that has been devised over the last several years is that it clearly fluoresces with neutral red and that a distant action can be easily observed in a distantly held neutral red indication solution. This action includes otherwise unexplained movements of fine particles within the neutral red solution and more strikingly the induced crystallization that occurs in the neutral red solution. […] The UV inducible fluorescence, or other form of energy emission, within the plastic bags will typically evoke some discernable fluorescence within at least some skin areas in most of the treated and symptomatic patients, consistent with an overall systemic activation of the body's ACE pathway. […] The liquid-in-a-bag format also allows for the addition of other materials that can further enhance the activation and/or fluorescence of the formulations being studied. […]

CCN(CC)CC(=O)Nc1c(C)cccc1C [Lidocaine]
fluorescence with neutral red: will not fluoresce
